Data from patent US20100298141A1, “SUBSTITUTED PYRIDINE N-OXIDE HERBICIDES” (E. I. DU PONT DE NEMOURS AND COMPANY, priority 2007, published 2010).

Key:
rice = test: Test C flooded paddy test; assay type: in vivo, Oryza sativa; details: Flood
Outline: (§1)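 In-water treatment: compound dosed into 3 cm flood over soil, water level unchanged throughout. Controls run alongside; visual assessment at day 13–15.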

lambsquarters = test: Test C pre-/postemergence test; assay type: in vivo, Chenopodium album; details: for Lambsquarters plant response rating: preemergence, scale 0 (no effect) to 100 (complete control); for Plant response rating, Lambsquarters: scale 0 to 100, 0 no effect, 100 complete control
Outline: (§2)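 Seeds were planted and treated preemergence with test chemical in a non-phytotoxic solvent mixture containing surfactant. Postemergence applications of the same formulation went onto plants 2 to 18 cm tall (1- to 4-leaf stage). A dash marks no test result.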

soybean = test: Test C pre-/postemergence test; assay type: in vivo, Glycine max
Outline: as §2

kochia = test: Test C pre-/postemergence test; assay type: in vivo, Kochia scoparia; details: for Kochia plant response rating: preemergence, scale 0 (no effect) to 100 (complete control)
Outline: as §2

yellow nutsedge = test: Test C pre-/postemergence test; assay type: in vivo, Cyperus esculentus
Outline: as §2

duck salad = test: Test C flooded paddy test; assay type: in vivo, Heteranthera limosa; details: Flood
Outline: as §1

redroot pigweed = test: Test A pre-/postemergence greenhouse test; assay type: in vivo, Amaranthus retroflexus; details: for Plant response rating, Pigweed: 0 to 100 scale where 0 is no effect and 100 is complete control; for Pigweed plant response rating: 0 to 100 scale
Outline: (§3)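 Greenhouse herbicide screen, pre- and postemergence in parallel. Soil: loam plus sand. Formulation: non-phytotoxic solvent mix with surfactant. Postemergence stage: one to two leaves, 2–10 cm height. Evaluation: visual injury, compared with untreated controls, about 10 days after treatment.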

blackgrass = test: Test C pre-/postemergence test; assay type: in vivo, Alopecurus myosuroides; details: for Plant response rating, Blackgrass: scale 0 to 100, 0 no effect, 100 complete control
Outline: as §2

cocklebur = test: Test C pre-/postemergence test; assay type: in vivo, Xanthium strumarium
Outline: as §2

downy brome = test: Test C pre-/postemergence test; assay type: in vivo, Bromus tectorum
Outline: as §2

bermudagrass = test: Test C pre-/postemergence test; assay type: in vivo, Cynodon dactylon
Outline: as §2

wild oat = test: Test C pre-/postemergence test; assay type: in vivo, Avena fatua
Outline: as §2

woolly cupgrass = test: Test C pre-/postemergence test; assay type: in vivo, Eriochloa villosa
Outline: as §2

morningglory = test: Test A pre-/postemergence greenhouse test; assay type: in vivo, Ipomoea spp.; details: for Plant response rating, Morningglory: 0 to 100 scale where 0 is no effect and 100 is complete control; for Morningglory plant response rating: 0 to 100 scale
Outline: as §3

green foxtail = test: Test C pre-/postemergence test; assay type: in vivo, Setaria viridis
Outline: as §2

[1] = 62 g ai/ha, scale 0 to 100 (0 no effect, 100 complete control)
[2] = 250 g ai/ha, scale 0 to 100, 0 no effect, 100 complete control, 13 to 15 days
[3] = 62 g ai/ha, Preemergence, scale 0 to 100
[4] = 125 g ai/ha, preemergence, scale 0 (no effect) to 100 (complete control)
[5] = Preemergence, 31 g ai/ha, scale 0 to 100 (0 no effect, 100 complete control)
[6] = preemergence, 250 g ai/ha, scale 0 (no effect) to 100 (complete control)
[7] = Postemergence, 500 g ai/ha, 0 is no effect, 100 is complete control
[8] = Preemergence, 125 g ai/ha, 0 no effect, 100 complete control
[9] = Postemergence, 125 g ai/ha, scale 0 to 100, 0 no effect, 100 complete control
[10] = Postemergence, 250 g ai/ha, scale 0 to 100, 0 no effect, 100 complete control
[11] = Postemergence, 62 g ai/ha, scale 0 to 100, 0 no effect, 100 complete control

SMILES: Cn1nc(OC(F)F)c(CS(=O)(=O)c2cccc[n+]2[O-])c1C(F)(F)F [Compound 80]
- Plant response rating, Rice (rice; [1]): 0
- Plant response rating, Rice (rice; [2]): 50
- Lambsquarters plant response rating (lambsquarters; 125 g ai/ha): 60
- Lambsquarters plant response rating (lambsquarters; 250 g ai/ha): 100
- Soybean plant response rating (soybean; [3]): 0
- Soybean plant response rating (soybean; [4]): 20
- Plant response rating, Soybean (soybean; [5]): 0
- Soybean plant response rating (soybean; [6]): 20
- Kochia plant response rating (kochia; 125 g ai/ha): 70
- Plant response rating, Kochia (kochia; [5]): 0
- Kochia plant response rating (kochia; 250 g ai/ha): 100
- Nutsedge, Yellow plant response rating (yellow nutsedge; [3]): 75
- Nutsedge, Yellow plant response rating (yellow nutsedge; [4]): 85
- Plant response rating, Nutsedge, Yellow (yellow nutsedge; [5]): 45
- Nutsedge, Yellow plant response rating (yellow nutsedge; [6]): 95
- Plant response rating, Ducksalad (duck salad; [1]): 0
- Plant response rating, Ducksalad (duck salad; [2]): 85
- Plant response rating, Pigweed (redroot pigweed; Postemergence, 125 g ai/ha): 10
- Pigweed plant response rating (redroot pigweed; [7]): 40
- Pigweed plant response rating (redroot pigweed; [8]): 70
- Plant response rating, Pigweed (redroot pigweed; Preemergence, 500 g ai/ha): 90
- Blackgrass plant response rating (blackgrass; [6]): 90
- Cocklebur plant response rating (cocklebur; [3]): 0
- Cocklebur plant response rating (cocklebur; [4]): 45
- Plant response rating, Cocklebur (cocklebur; [5]): 0
- Cocklebur plant response rating (cocklebur; [6]): 80
- Bromegrass, Downy plant response rating (downy brome; [3]): 40
- Bromegrass, Downy plant response rating (downy brome; [4]): 60
- Plant response rating, Bromegrass, Downy (downy brome; [5]): 40
- Bromegrass, Downy plant response rating (downy brome; [6]): 95
- Bermudagrass plant response rating (bermudagrass; 62 g ai/ha, Preemergence, scale 0 to 100 (0 no effect, 100 complete control)): 100
- Bermudagrass plant response rating (bermudagrass; [4]): 100
- Plant response rating, Bermudagrass (bermudagrass; [5]): 100
- Bermudagrass plant response rating (bermudagrass; [6]): 100
- Oat, Wild plant response rating (wild oat; [3]): 85
- Oat, Wild plant response rating (wild oat; [4]): 95
- Plant response rating, Oat, Wild (wild oat; [5]): 70
- Oat, Wild plant response rating (wild oat; [6]): 100
- Cupgrass, Woolly plant response rating (woolly cupgrass; [3]): 100
- Cupgrass, Woolly plant response rating (woolly cupgrass; [4]): 100
- Plant response rating, Cupgrass, Woolly (woolly cupgrass; [5]): 100
- Cupgrass, Woolly plant response rating (woolly cupgrass; [6]): 100
- Plant response rating, Morningglory (morningglory; Postemergence, 125 g ai/ha): 10
- Morningglory plant response rating (morningglory; [7]): 50
- Morningglory plant response rating (morningglory; [8]): 60
- Plant response rating, Morningglory (morningglory; Preemergence, 500 g ai/ha): 80
- Foxtail, Green plant response rating (green foxtail; [3]): 85
- Foxtail, Green plant response rating (green foxtail; [4]): 100
- Plant response rating, Foxtail, Green (green foxtail; [5]): 85
- Foxtail, Green plant response rating (green foxtail; [6]): 100

SMILES: Cn1nc(C(F)(F)F)c(C[S+]([O-])c2cccc[n+]2[O-])c1OCC(F)(F)C(F)(F)F (stereo not drawn) [Compound 78]
- Plant response rating, Rice (rice; [1]): 10
- Plant response rating, Rice (rice; [2]): 70
- Plant response rating (0 to 100), Lambsquarters (lambsquarters; Postemergence, 31 g ai/ha): 0
- Plant response rating, Lambsquarters (lambsquarters; Postemergence, 62 g ai/ha): 0
- Plant response rating, Lambsquarters (lambsquarters; Postemergence, 125 g ai/ha): 0
- Plant response rating, Lambsquarters (lambsquarters; Postemergence, 250 g ai/ha): 0
- Plant response rating (0 to 100), Soybean (soybean; Postemergence, 62 g ai/ha): 20
- Plant response rating, Soybean (soybean; [9]): 60
- Plant response rating, Soybean (soybean; [10]): 65
- Plant response rating (0 to 100), Kochia (kochia; Postemergence, 31 g ai/ha): 0
- Plant response rating, Kochia (kochia; [11]): 0
- Plant response rating, Kochia (kochia; [9]): 0
- Plant response rating, Kochia (kochia; [10]): 0
- Plant response rating (0 to 100), Nutsedge, Yellow (yellow nutsedge; Postemergence, 31 g ai/ha): 0
- Plant response rating, Nutsedge, Yellow (yellow nutsedge; [11]): 0
- Plant response rating, Nutsedge, Yellow (yellow nutsedge; [9]): 0
- Plant response rating, Nutsedge, Yellow (yellow nutsedge; [10]): 0
- Plant response rating, Ducksalad (duck salad; [1]): 30
- Plant response rating, Ducksalad (duck salad; [2]): 70
- Plant response rating, Pigweed (redroot pigweed; Postemergence, 125 g ai/ha): 50
- Pigweed plant response rating (redroot pigweed; [7]): 60
- Pigweed plant response rating (redroot pigweed; [8]): 10
- Plant response rating, Pigweed (redroot pigweed; Preemergence, 500 g ai/ha): 100
- Plant response rating (0 to 100), Blackgrass (blackgrass; Postemergence, 31 g ai/ha): 0
- Plant response rating, Blackgrass (blackgrass; Postemergence, 62 g ai/ha): 0
- Plant response rating, Blackgrass (blackgrass; Postemergence, 125 g ai/ha): 50
- Plant response rating, Blackgrass (blackgrass; Postemergence, 250 g ai/ha): 100
- Plant response rating (0 to 100), Cocklebur (cocklebur; Postemergence, 31 g ai/ha): 0
- Plant response rating, Cocklebur (cocklebur; [11]): 0
- Plant response rating, Cocklebur (cocklebur; [9]): 0
- Plant response rating, Cocklebur (cocklebur; [10]): 0
- Plant response rating (0 to 100), Bromegrass, Downy (downy brome; Postemergence, 31 g ai/ha): 0
- Plant response rating, Bromegrass, Downy (downy brome; [11]): 0
- Plant response rating, Bromegrass, Downy (downy brome; [9]): 0
- Plant response rating, Bromegrass, Downy (downy brome; [10]): 0
- Plant response rating (0 to 100), Bermudagrass (bermudagrass; Postemergence, 31 g ai/ha): 0
- Plant response rating, Bermudagrass (bermudagrass; [11]): 0
- Plant response rating, Bermudagrass (bermudagrass; [9]): 0
- Plant response rating, Bermudagrass (bermudagrass; [10]): 0
- Plant response rating (0 to 100), Oat, Wild (wild oat; Postemergence, 31 g ai/ha): 0
- Plant response rating, Oat, Wild (wild oat; [11]): 0
- Plant response rating, Oat, Wild (wild oat; [9]): 0
- Plant response rating, Oat, Wild (wild oat; [10]): 0
- Plant response rating (0 to 100), Cupgrass, Woolly (woolly cupgrass; Postemergence, 31 g ai/ha): 0
- Plant response rating, Cupgrass, Woolly (woolly cupgrass; [11]): 0
- Plant response rating, Cupgrass, Woolly (woolly cupgrass; [9]): 0
- Plant response rating, Cupgrass, Woolly (woolly cupgrass; [10]): 20
- Plant response rating, Morningglory (morningglory; Postemergence, 125 g ai/ha): 30
- Morningglory plant response rating (morningglory; [7]): 60
- Morningglory plant response rating (morningglory; [8]): 20
- Plant response rating, Morningglory (morningglory; Preemergence, 500 g ai/ha): 80
- Plant response rating (0 to 100), Foxtail, Green (green foxtail; Postemergence, 31 g ai/ha): 0
- Plant response rating, Foxtail, Green (green foxtail; [11]): 0
- Plant response rating, Foxtail, Green (green foxtail; [9]): 45
- Plant response rating, Foxtail, Green (green foxtail; [10]): 80
